Positions count from the first letter of the chain named. Like-named read-outs stand apart in the source and are kept apart here.
Key:
Human androgen receptors = molecular target: T1, Human androgen receptors (Homo sapiens, UniProt P10275, T878A); assay: Biochemical AR LBD antagonism (Eurofins AR radioligand binding assay)
T1 construct: Human androgen receptors obtained from human LNCaP cells were used; host or cells: human LNCaP cells
T1 sequence (P10275 1-920 T878A): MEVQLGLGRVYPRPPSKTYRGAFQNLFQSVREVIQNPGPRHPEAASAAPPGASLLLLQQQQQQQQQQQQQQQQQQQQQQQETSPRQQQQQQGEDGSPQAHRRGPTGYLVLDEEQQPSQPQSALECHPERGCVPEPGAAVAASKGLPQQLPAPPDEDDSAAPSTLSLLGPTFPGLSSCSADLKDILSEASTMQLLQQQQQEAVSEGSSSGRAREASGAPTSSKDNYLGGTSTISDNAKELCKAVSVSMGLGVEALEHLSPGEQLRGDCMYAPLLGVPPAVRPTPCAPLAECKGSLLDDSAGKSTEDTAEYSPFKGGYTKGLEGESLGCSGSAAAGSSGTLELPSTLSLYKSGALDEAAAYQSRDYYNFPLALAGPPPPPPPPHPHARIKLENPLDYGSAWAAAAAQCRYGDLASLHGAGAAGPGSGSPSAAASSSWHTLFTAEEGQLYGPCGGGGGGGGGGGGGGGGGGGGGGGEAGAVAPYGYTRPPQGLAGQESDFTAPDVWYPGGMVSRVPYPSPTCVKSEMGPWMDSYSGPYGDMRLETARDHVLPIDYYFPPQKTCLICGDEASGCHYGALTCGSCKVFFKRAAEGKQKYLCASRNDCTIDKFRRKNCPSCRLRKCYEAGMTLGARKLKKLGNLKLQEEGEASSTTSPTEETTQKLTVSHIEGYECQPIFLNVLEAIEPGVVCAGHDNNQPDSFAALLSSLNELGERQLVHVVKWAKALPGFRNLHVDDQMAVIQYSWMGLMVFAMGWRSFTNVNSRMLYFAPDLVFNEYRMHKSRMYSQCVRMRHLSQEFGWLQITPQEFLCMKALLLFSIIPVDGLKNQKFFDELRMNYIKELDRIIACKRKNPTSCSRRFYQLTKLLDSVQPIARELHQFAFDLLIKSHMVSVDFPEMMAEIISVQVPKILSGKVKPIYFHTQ
Method: Human androgen receptors obtained from human LNCaP cells were used in modified HEPES buffer pH 7.4. A 70 μg‡ aliquot was incubated with 0.5 nM [3H] Methyltrienolone for 20 h at 4° C. Non-specific binding was estimated in the presence of 1 μM testosterone. Receptors were filtered and washed, the filters were then counted to determine [3H] Methyltrienolone specifically bound. Compounds were screened at 10 μM.
Furthermore, as noted earlier, most clinically relevant AR inhibitors target the ligand binding domain (LBD) of the androgen receptor, and these inhibitors can lose efficacy due to point mutations in the LBD. Given that the AR protein contains multiple sub-domains, targeting other domains is an attractive approach for new inhibitors. […] Therefore, the compounds as described herein may be interacting with other subdomains in the AR protein, namely the N-terminal domain.

[1] = Human liver microsome stability; format: in vitro ADME; details: 1 μM
Method: (§1) Preincubation mixture 2.5 μL Test Cpd. +75 μL Liver microsomes (human or mouse source) @ 3.33 mg/mL+85 µL of 100 mM potassium phosphate buffer (preincubate for 10 min @ 37° C.). Incubation mixture 62 μL of cofactor (2.85 mM)+Remaining incubation mixture (Incubated for 60 min @ 37° C.). Sample preparation 25 μL incubation mixture+200 μL of acetonitrile containing internal standard+Vortex 5 min @ 1200 rpm+Centrifuge 10 min @ 4000 rpm. Supernatant diluted 2-fold with water and injected on LC-MS/MS.

human AR = molecular target: T2, human AR (Homo sapiens, UniProt P10275); assay: Indigo Biosciences AR reporter cell assay (AR inhibition, antagonist mode); format: cell-based; details: for IC50: luciferase reporter cells, 24 hr, EC80 of agonist 5α-dihydro-11-keto testosterone, read-out: AR Inhibition Indigo Cell Based: Avg IC50
T2 construct: Reporter Cells used in these assays expressed a native receptor (AR)
T2 sequence (P10275 1-920): T1 sequence (P10275 1-920 T878A) with A878T
Method: The aim of this study was to evaluate compounds 1-12 and the comparative compounds 1-2 for inhibition activities against human AR. Reporter Cells used in these assays expressed a native receptor (AR). The reporter gene, firefly luciferase, is functionally linked to an upstream receptor-specific genetic response element (GRE). Reporter cells were treated with eight concentrations, starting at 50 μM and following with 3.17-fold dilutions. Single treatment concentration was performed (n=1). Assay performance was validated using the reference antagonist hydroxy flutamide. • Step 1: A suspension of reporter cells was prepared in Cell Recovery Medium (CRM). Reporter cells were first supplemented with 2×-EC80 concentration of the reference agonist, 5α-dihydro-11-keto testosterone, then 100 μl of the Reporter Cell suspension was dispensed into wells of a white 96-well assay plate. • Step 2: Test compound master stocks were diluted in DMSO to generate solutions at ‘500×-concentration’ relative to the final treatment concentration and diluted directly into INDIGO's Compound Screening Medium (CSM; containing charcoal-stripped FBS) to generate ‘2×-concentration’ treatment media. This was diluted into the wells to the final concentration. Assay plates were incubated at 37° C., 5% CO2 and ~70% humidity for 24 hr. • Step 3: Following the incubation period, wells were rinsed once with Live Cell Multiplex (LCM) Buffer, then LCM substrate was added. Following incubation at room temperature for 15 min, LCM substrate was discarded and 100 μL/well of luciferase detection reagent was added. Subsequently, fluorescence was measured to determine the relative number of live cells per assay well. RLU values were quantified after a 10 min incubation period at room temperature to determine nuclear receptor activities.

[2] = Mouse liver microsome stability; format: in vitro ADME; details: 1 μM
Method: as §1

[3] = Table 4, read-out: Biochemical AR LBD Antagonism: Average IC50
[4] = Table 6, human liver microsomes
[5] = Table 6, mouse liver microsomes

SMILES	IC50 (Human androgen receptors; [3])	Human LM: Rem @ 60 min [1, 4]	IC50 (human AR; Table 2)	Mouse LM: Rem @ 60 min [2, 5]	IC50 (Human androgen receptors; Table 3, read-out: Biochemical AR LBD Antagonism: Avg IC50)	Human LM: Rem @ 60 min ([1]; Table 5, human liver microsomes)	IC50 (human AR; Table 1)	times more potent than the racemic mixture (Comparative Compound 1) in the cell-based activity assay (human AR; versus Comparative Compound 1)	times more potent than the S isomer (Comparative Compound 2) in the cell-based activity assay (human AR; versus Comparative Compound 2)	Mouse LM: Rem @ 60 min ([2]; Table 5, mouse liver microsomes)
CC[C@@H](Nc1ccc2nnc(C(F)(F)F)n2n1)c1ccc(F)cc1 [Compound 3, (R)—N-(1-(4-fluorophenyl)propyl)-3-(trifluoromethyl)-[1,2,4]triazolo[4,3-b]pyridazin-6-amine]	> 0.501 µM	+++ (>60.1: “+++”)	< 0.05 µM	+++ (>60.1: “+++”)						
C[C@@H](Nc1ccc2nnc(C(F)(F)F)n2n1)c1ccc(F)cc1 [Compound 1, (R)—N-(1-(4-fluorophenyl)ethyl)-3-(trifluoromethyl)-[1,2,4]triazolo[4,3-b]pyridazin-6-amine]	> 0.501 µM	+++ (>60.1: “+++”)	< 0.05 µM	++ (30.1-60: “++”)	> 0.501 µM	+++ (>60.1: “+++”)	< 0.05 µM	~ 2 times	~ 150 times	++ (30.1-60: “++”)
